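1) Cells in 96-well plates. 2) Compound, 48 h, 5 concentrations. 3) Linear interpolation between surrounding doses. 4) Unreached endpoint = highest concentration. At the GI50, growth is halved. TGI: total growth inhibition.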
Assays:
Test in all cases: DTP human tumour cell line panel, 48 h
[1] = tested on: DMS 114 small cell lung
[2] = tested on: DMS 273 small cell lung
[3] = tested on: HOP-18 NSCLC
[4] = tested on: LXFL 529 NSCLC
[5] = tested on: M19-MEL melanoma
[6] = tested on: XF 498 CNS
[7] = tested on: RXF-631 renal
[8] = tested on: MDA-N

Row | SMILES | TGI [1] [µM] | TGI [2] [µM] | TGI [3] [µM] | TGI [4] [µM] | TGI [5] [µM] | TGI [6] [µM] | TGI [7] [µM] | GI50 [1] [µM] | GI50 [2] [µM] | GI50 [3] [µM] | GI50 [4] [µM] | GI50 [5] [µM] | GI50 [7] [µM] | GI50 [6] [µM] | TGI [8] [µM]
1 | CCCC1N2CCCCC2[C@@H]2c3[nH]c4ccccc4c3CCN12 (some centres undefined) | > 100 | > 100 | > 100 | > 100 | > 100 | > 100 |  |  |  |  |  |  |  |  | 
2 | O=C(CC1(O)C(=O)Nc2ccccc21)c1ccncc1 (centres undefined) | > 100 | > 100 |  | > 100 | > 100 |  |  |  |  |  |  |  |  |  | 
3 | CCc1ccccc1NC(=O)C1=C(C)NC(C)=C(C(=O)Nc2ccccc2CC)C1c1ccc2c(c1)OCO2 | > 100 |  |  | 98.4 | > 100 | 70.4 |  |  |  |  |  |  |  |  | 
4 | COc1ccc(NC(=O)CC(=O)N/N=C/c2ccc(N(CCC#N)S(C)(=O)=O)cc2)cc1 | > 100 | > 100 | > 100 | > 100 | > 100 |  | > 100 |  |  |  |  |  |  |  | 
5 | CCN(CC)C(c1ccc(N(C)C)cc1)C(c1ccc(N(C)C)cc1)N(CC)CC (centres undefined) | 40.6 | > 73 |  | > 73 | > 73 |  | > 73 |  |  |  |  |  |  |  | 
6 | CCOC(=O)/C(C#N)=C/c1[nH]c(C(=O)OCc2ccccc2)c(C)c1C | > 100 | > 100 | > 100 | > 100 | > 100 |  | > 100 |  |  |  |  |  |  |  | 
7 | Cc1ccc(NC(=O)CC(=O)n2nc(C)c(N=Nc3ccccc3C(=O)O)c2C)cc1 | > 100 | > 100 |  | > 100 | > 100 | > 100 | > 100 |  |  |  |  |  |  |  | 
8 | COCCCNC(=O)C1C(=O)C(=O)N(CCCOC)C1=O (centres undefined) | > 100 | > 100 | > 100 | > 100 | > 100 |  | > 100 |  |  |  |  |  |  |  | 
9 | C/C(O)=C(\N=O)C(=O)Nc1ccc(Cl)cc1Cl | > 100 | > 100 | > 100 | > 100 | > 100 |  |  |  |  |  |  |  |  |  | 
10 | C/C(CC(=O)Nc1cc(C)ccc1C)=N\NC(=O)c1ccncc1 |  |  |  | > 100 | > 100 |  | > 100 |  |  |  |  |  |  |  | 
11 | NC1=NC(c2ccccc2)CC(c2cc(Cl)ccc2O)=N1 (centres undefined) | 25.6 | 25.6 | 35.6 | 28.3 | 29.5 | 33.7 |  |  |  |  |  |  |  |  | 
12 | COc1ccc2nc3c(C(=O)NCCN(C)C)cccc3nc2c1 | 20.2 | 23.8 | > 100 |  | 22.2 |  |  |  |  |  |  |  |  |  | 
13 | NC(=O)COC(=O)c1c(Cl)nc2sccn12 | > 83.8 | > 100 | > 100 | > 100 | > 100 | > 100 | > 100 |  |  |  |  |  |  |  | 
14 | CCC[CH2][Sn]1([CH2]CCC)[O]C(=O)CN=Cc2c(ccc3ccccc23)[O]1 | 0.299 | 2.22 | 1.52 | 0.249 | 1.23 | > 100 | 0.0331 | 0.139 | 1 | 0.223 | 0.107 | 0.299 | 0.0181 | > 100 | 
15 | O=C1c2cccc([N+](=O)[O-])c2C(=O)N1c1ncn[nH]1 |  |  |  |  |  |  |  |  |  |  |  |  |  |  | > 100
16 | NC(=S)N1N=C2c3ccccc3CC[C@@H]2[C@@H]1c1ccccc1 | 8.01 | 20.7 | > 100 | 97.6 | 47.2 |  | > 100 |  |  |  |  |  |  |  | 
17 | Cc1cc(Cl)cc2c1NC(=O)C2(O)CC(=O)c1ccco1 (centres undefined) | > 100 | > 100 | > 100 | > 100 | 30.9 | > 100 | > 100 |  |  |  |  |  |  |  | 22.9
18 | O=C1CCC2(c3ccccc3)Nc3ccncc3N12 (centres undefined) |  |  |  |  |  |  |  |  |  |  |  |  |  |  | > 10
19 | Nc1c(-c2ccc(Cl)cc2)[n+]([O-])c2ccccc2[n+]1[O-] | > 100 | > 100 | > 100 | > 100 | > 100 | > 100 |  |  |  |  |  |  |  |  | 

Source: PubChem BioAssay (NCI)
